The text below walks through data of ChEMBL document CHEMBL5724914, “Linking interpersonal differences in gut microbiota composition and drug biotransformation activity” (2024).

The conditions of data set [1]: human gut metagenome, 24 h, 2 µM.
Data set [2] in a line: The drug is tested on Z-018 corresponding to pig gut metagenome with ENA study accession number: PRJEB37062 and ENA sample accession number: ERS12561817 for biotransformation under anaerobic condition. The drug concentrations were measured over 9 timepoints collected between 0 and 24 hours of incubation by liquid-chromatography-coupled mass spectrometry (LC–MS). To be noted: 2 µM.

The nature of data set [3]: The drug is tested on WLS-310 corresponding to human gut metagenome with ENA study accession number: PRJEB37062 and ENA sample accession number: ERS12561785 for biotransformation under anaerobic condition. The drug concentrations were measured over 9 timepoints collected between 0 and 24 hours of incubation by liquid-chromatography-coupled mass spectrometry (LC–MS). To be noted: 2 µM.

Data set [4] in a line: The drug is tested on Z-001 corresponding to mouse gut metagenome with ENA study accession number: PRJEB37062 and ENA sample accession number: ERS12561801 for biotransformation under anaerobic condition. The drug concentrations were measured over 9 timepoints collected between 0 and 24 hours of incubation by liquid-chromatography-coupled mass spectrometry (LC–MS). To be noted: 2 µM.

The conditions of data set [5]: human gut metagenome, 24 h, 2 µM. This is another data set of the same source.
For data set [6] the following is noted: human gut metagenome, 24 h, 2 µM. The source holds these as a separate data set.
The conditions of data set [7]: human gut metagenome, 24 h, 2 µM. The source holds these as a separate data set.
For data set [8] the following is noted: human gut metagenome, 24 h, 2 µM. The source holds these as a separate data set.
A short description of data set [9]: The drug is tested on Z-013 corresponding to rabbit gut metagenome with ENA study accession number: PRJEB37062 and ENA sample accession number: ERS12561813 for biotransformation under anaerobic condition. The drug concentrations were measured over 9 timepoints collected between 0 and 24 hours of incubation by liquid-chromatography-coupled mass spectrometry (LC–MS). Conditions: 2 µM.

Data set [10] in a line: The drug is tested on Z-012 corresponding to metagenome with ENA study accession number: PRJEB37062 and ENA sample accession number: ERS12561812 for biotransformation under anaerobic condition. The drug concentrations were measured over 9 timepoints collected between 0 and 24 hours of incubation by liquid-chromatography-coupled mass spectrometry (LC–MS). To be noted: 2 µM.

For data set [11] the following is noted: human gut metagenome, 24 h, 2 µM. The source holds these as a separate data set.
Data set [12] is described as follows: The drug is tested on WLS-077 corresponding to human gut metagenome with ENA study accession number: PRJEB37062 and ENA sample accession number: ERS12561750 for biotransformation under anaerobic condition. The drug concentrations were measured over 9 timepoints collected between 0 and 24 hours of incubation by liquid-chromatography-coupled mass spectrometry (LC–MS). Conditions: 2 µM.

The conditions of data set [13]: human gut metagenome, 24 h, 2 µM. This is another data set of the same source.
Data set [14] in a line: The drug is tested on Z-025 corresponding to rabbit gut metagenome with ENA study accession number: PRJEB37062 and ENA sample accession number: ERS12561824 for biotransformation under anaerobic condition. The drug concentrations were measured over 9 timepoints collected between 0 and 24 hours of incubation by liquid-chromatography-coupled mass spectrometry (LC–MS). To be noted: 2 µM.

For data set [15] the following is noted: human gut metagenome, 24 h, 2 µM. The source holds these as a separate data set.
For data set [16] the following is noted: human gut metagenome, 24 h, 2 µM. This is another data set of the same source.
Data set [17] in a line: The drug is tested on Z-029 corresponding to rat gut metagenome with ENA study accession number: PRJEB37062 and ENA sample accession number: ERS12561828 for biotransformation under anaerobic condition. The drug concentrations were measured over 9 timepoints collected between 0 and 24 hours of incubation by liquid-chromatography-coupled mass spectrometry (LC–MS). Conditions: 2 µM.

The conditions of data set [18]: human gut metagenome, 24 h, 2 µM. The source holds these as a separate data set.
A short description of data set [19]: The drug is tested on Z-011 corresponding to mouse gut metagenome with ENA study accession number: PRJEB37062 and ENA sample accession number: ERS12561811 for biotransformation under anaerobic condition. The drug concentrations were measured over 9 timepoints collected between 0 and 24 hours of incubation by liquid-chromatography-coupled mass spectrometry (LC–MS). Conditions: 2 µM.

Data set [20] in a line: The drug is tested on Z-022 corresponding to mouse gut metagenome with ENA study accession number: PRJEB37062 and ENA sample accession number: ERS12561821 for biotransformation under anaerobic condition. The drug concentrations were measured over 9 timepoints collected between 0 and 24 hours of incubation by liquid-chromatography-coupled mass spectrometry (LC–MS). To be noted: 2 µM.
Note: call rule not given here.

For `CC#C[C@]1(O)CC[C@H]2[C@@H]3CCC4=CC(=O)CCC4=C3[C@@H](c3ccc(N(C)C)cc3)C[C@@]21C` [MIFEPRISTONE], the “Bacterial Biotransformation” value is “Compound NOT metabolized” in data set [1]; “Compound metabolized” in data set [2]; “Compound metabolized” in data set [3]; “Compound NOT metabolized” in data set [4]; “Compound NOT metabolized” in data set [5]; “Compound metabolized” in data set [6]. Besides, the “Bacterial Biotransformation” value was “Compound metabolized” in data set [7]; “Compound NOT metabolized” in data set [8]; “Compound metabolized” in [9]; “Compound NOT metabolized” in [10]; “Compound NOT metabolized” in data set [11]; “Compound NOT metabolized” in data set [12]. For the same compound, the “Bacterial Biotransformation” value in [13] is given as “Compound metabolized”; in [14], “Compound NOT metabolized”; in [15] it was “Compound NOT metabolized”; in data set [16] it was “Compound metabolized”; in data set [17], “Compound NOT metabolized”; in data set [18] it was “Compound NOT metabolized”. Further, the “Bacterial Biotransformation” value in data set [19] is given as “Compound metabolized”; in data set [20] it was “Compound NOT metabolized”.

For the compound `Cc1ccccc1C(OCCN(C)C)c1ccccc1.O=C(O)CC(O)(CC(=O)O)C(=O)O` (stereo not given) [ORPHENADRINE CITRATE], the “Bacterial Biotransformation” value in data set [1] is “Compound NOT metabolized”; in [2], “Compound metabolized”; in [3] it was “Compound NOT metabolized”; in data set [4], “Compound metabolized”; in data set [5], “Compound NOT metabolized”; in data set [6], “Compound NOT metabolized”. For the same compound, the “Bacterial Biotransformation” value in data set [7], in data set [8], in data set [9], in [10], in data set [11] and in [12] was “Compound NOT metabolized” throughout. In addition, the “Bacterial Biotransformation” value in data set [13] is recorded as “Compound NOT metabolized”; in data set [14], “Compound metabolized”; in data set [15], “Compound metabolized”; in data set [16], “Compound NOT metabolized”; in [17], “Compound NOT metabolized”; in data set [18], “Compound NOT metabolized”. Moreover, the “Bacterial Biotransformation” value in data set [19] and in [20] was “Compound NOT metabolized” each time.

With `CC(C)(C)N.CCC[C@H](N[C@@H](C)C(=O)N1[C@H](C(=O)O)C[C@@H]2CCCC[C@@H]21)C(=O)OCC` [PERINDOPRIL ERBUMINE], the “Bacterial Biotransformation” value in data set [1] is “Compound NOT metabolized”; in [2] it was “Compound metabolized”; in data set [3], “Compound metabolized”; in data set [4] it was “Compound NOT metabolized”; in data set [5], “Compound metabolized”; in data set [6], “Compound metabolized”. Further, the “Bacterial Biotransformation” value in data set [7] is listed as “Compound metabolized”; in [8] it was “Compound metabolized”; in [9] it was “Compound NOT metabolized”; in data set [10], “Compound metabolized”; in [11], “Compound metabolized”; in data set [12] it was “Compound NOT metabolized”. Also, the “Bacterial Biotransformation” value is listed as “Compound metabolized” in data set [13]; “Compound NOT metabolized” in data set [14]; “Compound metabolized” in data set [15]; “Compound metabolized” in data set [16]; “Compound NOT metabolized” in data set [17]; “Compound NOT metabolized” in [18]. Moreover, the entries for the “Bacterial Biotransformation” value in data set [19] and in data set [20] were “Compound NOT metabolized” and “Compound metabolized”, respectively.

On to `COC(=O)C(c1ccccc1)C1CCCCN1` (stereo not given) [METHYLPHENIDATE], for which the “Bacterial Biotransformation” value in [1] is given as “Compound NOT metabolized”; in [2], “Compound metabolized”; in data set [3] it was “Compound NOT metabolized”; in data set [4], “Compound metabolized”; in [5], “Compound NOT metabolized”; in [6], “Compound NOT metabolized”. Further, the “Bacterial Biotransformation” value in data set [7], in data set [8], in data set [9], in data set [10], in data set [11] and in data set [12] was “Compound NOT metabolized” throughout. For the same compound, the “Bacterial Biotransformation” value in data set [13], in [14], in data set [15], in data set [16], in [17] and in data set [18] was “Compound NOT metabolized” in each case. Further, the “Bacterial Biotransformation” value in data set [19] and in data set [20] was “Compound NOT metabolized” throughout.

For the compound `COc1cc2nc(N3CCN(C(=O)C4COc5ccccc5O4)CC3)nc(N)c2cc1OC.CS(=O)(=O)O` (stereo not given) [DOXAZOSIN MESYLATE], the “Bacterial Biotransformation” value in data set [1] was “Compound NOT metabolized”; in data set [2], “Compound metabolized”; in [3], “Compound metabolized”; in [4] it was “Compound NOT metabolized”; in [5], “Compound NOT metabolized”; in data set [6] it was “Compound metabolized”. For the same compound, the “Bacterial Biotransformation” value in [7] is “Compound NOT metabolized”; in data set [8] it was “Compound NOT metabolized”; in [9], “Compound metabolized”; in [10], “Compound NOT metabolized”; in [11] it was “Compound NOT metabolized”; in data set [12], “Compound metabolized”. Moreover, the “Bacterial Biotransformation” value in data set [13] was “Compound NOT metabolized”; in [14], “Compound NOT metabolized”; in data set [15], “Compound metabolized”; in data set [16], “Compound NOT metabolized”; in [17], “Compound NOT metabolized”; in [18] it was “Compound NOT metabolized”. The “Bacterial Biotransformation” value in [19] is given as “Compound NOT metabolized”; in data set [20] it was “Compound metabolized”.
